Reference: US20200157048A1, “(2E,4E)-5-PHENYL-PENTA-2,4-DIEN-1-ONE DERIVATIVE” (BIOWAY., INC, priority 2018, published 2020)

Key:
SIRT1 = molecular target: T1, SIRT1 (Homo sapiens, UniProt Q96EB6); test: SIRT1 direct fluorescent assay; format: biochemical
T1 construct: purchased Cayman (Ann Arbor, Mich., USA)
T1 sequence (Q96EB6 1-747): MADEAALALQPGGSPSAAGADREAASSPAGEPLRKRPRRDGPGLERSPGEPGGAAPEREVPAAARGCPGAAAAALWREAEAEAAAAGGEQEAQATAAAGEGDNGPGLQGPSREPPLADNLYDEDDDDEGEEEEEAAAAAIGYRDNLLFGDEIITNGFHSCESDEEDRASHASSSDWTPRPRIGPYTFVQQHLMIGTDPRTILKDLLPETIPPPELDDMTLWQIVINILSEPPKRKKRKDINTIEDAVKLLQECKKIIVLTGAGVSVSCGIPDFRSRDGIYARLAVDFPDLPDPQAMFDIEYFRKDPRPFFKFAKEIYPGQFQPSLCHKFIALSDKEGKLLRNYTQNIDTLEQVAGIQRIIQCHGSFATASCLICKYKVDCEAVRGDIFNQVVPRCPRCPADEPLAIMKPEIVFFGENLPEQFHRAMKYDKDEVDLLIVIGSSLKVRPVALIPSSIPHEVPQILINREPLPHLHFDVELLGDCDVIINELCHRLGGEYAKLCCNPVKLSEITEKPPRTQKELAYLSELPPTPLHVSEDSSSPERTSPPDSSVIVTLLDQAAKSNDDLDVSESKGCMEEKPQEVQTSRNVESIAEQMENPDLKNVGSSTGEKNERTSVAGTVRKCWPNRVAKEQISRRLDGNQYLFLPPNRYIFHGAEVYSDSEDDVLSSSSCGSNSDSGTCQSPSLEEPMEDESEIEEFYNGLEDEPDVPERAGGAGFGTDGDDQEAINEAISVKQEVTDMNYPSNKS
Method: All materials were provided from a Sirt1 direct fluorescent screening assay kit (Cayman, Ann Arbor, Mich., USA).
SIRT1, p53 conjugated aminomethyl coumarin (AMC) protein, and 3 mM NAD^+ were added to a diluted analysis buffer (50 mM Tris-HCl, pH 8.0, 137 mM NaCl, 2.7 mM KCl, and 1 mM MgCl2).
25 μL of the analysis buffer, 5 μL of diluted SIRT1, and 5 μL of a solvent were added to each of three 100% initial activity wells of a 96-well plate.
30 μL of the analysis buffer and 5 μL of a solvent were added to each of three background wells of the 96-well plate.
25 μL of the analysis buffer, 5 μL of diluted SIRT1, and 5 μL of a diluted test compound were added to each of three sample wells of the 96-well plate. The final DMSO concentration was less than 2%.
15 μL of a 3 mM NAD^+-containing substrate solution was added to all wells to begin the reaction. The 96-well plate was covered with a plate cover, and then incubated in a shaker at room temperature (25 to 30° C.) for 45 minutes.
A stop/developing solution was prepared. To prepare the final 5 mL solution, 200 μL of nicotinamide (NAM, Sigma-Aldrich) was added to a color developing powder weighing 30 mg, 4.8 mL of a diluted analysis buffer was added thereto, and the resulting mixture was stirred until the powder became a solution.
The plate cover was removed, and 50 μL of the stop/developing solution was added to each well.
The 96-well plate was covered with a plate cover, and incubated at room temperature (25 to 30° C.) for 30 minutes.
The plate cover was removed, and the plate was read using Cytation 5 at an excitation wavelength of 360 nm and an emission wavelength of 450 nm.
The mean fluorescence of each sample was measured.
The fluorescence of the background wells was subtracted from the fluorescence of the 100% initial activity wells and sample wells.
To determine the percent of each sample, each sample value was subtracted from the 100% initial activity value, and the resulting value was divided by the 100% initial activity value and then multiplied by 100 and added to 100, which was expressed as a percentage.

3T3-L1 preadipocytes [1] = test: Oil-Red-O staining of lipid droplets after induction of 3T3-L1 preadipocyte differentiation; format: cell-based, mouse; conditions: 50 μM test material; differentiated 3T3-L1 cells
Method: (§1) 3T3-L1 mouse preadipocytes (American Type Culture Collection) were incubated in an incubator set to 37° C., humidity of 95% and 5% CO2. The 3T3-L1 mouse preadipocytes were sufficiently proliferated using a proliferation medium (Dulbecco's modified Eagle's medium (DMEM) supplemented with 5% fetal bovine serum (FBS), 100 U/mL of penicillin and 100 μg/mL of streptomycin), and treated with a differentiation medium (DMEM containing 5% FBS, 0.5 mM 3-isobutyl-1-methylxanthine, […] dexamethasone and 10 μg/mL insulin) for 4 days. Afterward, the 3T3-L1 mouse preadipocytes were treated with an induction medium (DMEM containing 5% FBS and 10 μg/mL insulin, DMEM containing 5% FBS) for 2 days, and to maintain differentiated adipocytes until the end of the experiment, the induction medium was replaced every day. The 3T3-L1 cells were used in Experimental Examples 1, 2, and 3.
To confirm capacity of inhibiting the formation of lipid droplets of a test material, 3T3-L1 cells, which are preadipocytes, were induced to differentiate into adipocytes, and then the lipid droplets were stained through the Oil-Red-O staining.
First, after preadipocytes, 3T3-L1 cells, were incubated in a dish having a diameter of 10 cm^2, excluding G1 and G2, the cells were treated with 50 μM of a test material previously diluted with a culture medium (refer to Table 2).
Next, for staining, first, the cell supernatant present in a well was removed, and fixed with 4% paraformaldehyde. Afterward, after adding a 100% 1,2-propanediol dehydration solution, the resulting sample was incubated for 5 minutes, and then an Oil-Red-O stain solution was added for staining of lipid droplets. After the Oil-Red-O staining, an 85% 1,2-propanediol stain differential solution was added for washing.
Finally, after filling a well with D.W. without drying the stained well, the formation of lipid droplets was confirmed by observation using a microscope.
After confirming the formation of lipid droplets using Oil-Red-O staining, a part stained with isopropanol was dissolved, and the degree of staining lipid droplets was confirmed by absorbance at 540 nm. The increase/decrease rate, compared to the normal control, was evaluated using an optical density (OD) value.

3T3-L1 preadipocytes [2] = test: Glycerol content after induction of 3T3-L1 preadipocyte differentiation; format: cell-based, mouse; conditions: differentiated 3T3-L1 cells; predetermined concentration of test material
Method: as §1
(§2) Preadipocytes, 3T3-L1 cells, were incubated in a dish having a diameter of 10 cm^2 by the same method as described in Experimental Example 1, and then treated with a predetermined concentration of a test material diluted with a culture medium. After treatment, a glycerol content was confirmed using an assay kit.

3T3-L1 preadipocytes [3] = test: Triglyceride content after induction of 3T3-L1 preadipocyte differentiation; format: cell-based, mouse; conditions: differentiated 3T3-L1 cells; predetermined concentration of test material
Method: as §1
as §2, with “triglyceride” for “glycerol”

Row | increase of SIRT1 activity (FIG. 18) (SIRT1; 10 μM) [%] | increase of SIRT1 activity (FIG. 18) (SIRT1; 2 μM) | SMILES | amount of stained lipid droplets (Oil-Red-O dissolved in isopropanol, absorbance at 540 nm, FIG. 2) (3T3-L1 preadipocytes [1]) | glycerol content (FIG. 4) (3T3-L1 preadipocytes [2]) | triglyceride content (FIG. 3) (3T3-L1 preadipocytes [3])
1 | ≥ 10 |  | COc1ccc(/C=C/C=C/C(=O)N2CCN(C(=O)OC(C)C)CC2)cc1 [R-26, Isopropyl 4-((2E,4E)-5-(4-methoxyphenyl)penta-2,4-dienoyl)piperazine-1-carboxylate] |  |  | 
2 |  |  | CSc1ccc(/C=C/C=C/C(=O)N2CCC(NC(C)=O)CC2)cc1 [R-11, N-(1-((2E,4E)-5-(4-(methylthio)phenyl)penta-2,4-dienoyl)piperidine-4-yl)acetamide] | less than that of the test groups treated with R-3 and 4 | lower than that of the test group treated with R-3 | lower than that of the test group treated with R-3
3 |  |  | CSc1ccc(/C=C/C=C/C(=O)N2CCCC(O)C2)cc1 (centres unmarked) [R-7, (2E,4E)-1-(3-hydroxypiperidine-1-yl)-5-(4-(methylthio)phenyl)penta-2,4-dien-1-one] | less than that of the test groups treated with R-3 and 4 | lower than that of the test group treated with R-3 | lower than that of the test group treated with R-3
4 |  |  | COc1ccc(/C=C/C=C/C(=O)N2CCN(C)CC2)cc1 [R-15, (2E,4E)-5-(4-methoxyphenyl)-1-(4-methylpiperazine-1-yl)penta-2,4-dien-1-one] | less than that of the test groups treated with R-3 and 4 | lower than that of the test group treated with R-3 | lower than that of the test group treated with R-3
5 |  | about 5% | CCOC(=O)N1CCN(C(=O)/C=C/C=C/c2cccc(OC)c2)CC1 [R-22, Ethyl ((2E,4E)-5-(3-methoxyphenyl)penta-2,4-dienoyl)piperazine-1-carboxylate] |  |  | 
6 |  |  | CSc1ccc(/C=C/C=C/C(=O)N2CCN(C(C)=O)CC2)cc1 [R-17, (2E,4E)-1-(4-acetylpiperazine-1-yl)-5-(4-(methylthio)phenyl)penta-2,4-dien-1-one] | less than that of the test groups treated with R-3 and 4 | lower than that of the test group treated with R-3 | lower than that of the test group treated with R-3
7 |  |  | CSc1ccc(/C=C/C=C/C(=O)N2CCOCC2)cc1 [R-30, (2E,4E)-5-(4-(methylthio)phenyl)-1-morpholinopenta-2,4-dien-1-one] | less than that of the test groups treated with R-3 and 4 | lower than that of the test group treated with R-3 | lower than that of the test group treated with R-3
8 |  |  | COc1ccc(/C=C/C=C/C(=O)N2CCOCC2)cc1 [R-29, (2E,4E)-5-(4-methoxyphenyl)-1-morpholinopenta-2,4-dien-1-one] | less than that of the test groups treated with R-3 and 4 | lower than that of the test group treated with R-3 | lower than that of the test group treated with R-3
9 |  |  | CSc1ccc(/C=C/C=C/C(=O)N2CCN(C(=O)OC(C)(C)C)CC2)cc1 [R-28, Tert-butyl 4-((2E,4E)-5-(4-(methylthio)phenyl)penta-2,4-dienoyl)piperazine-1-carboxylate] | less than that of the test groups treated with R-3 and 4 | lower than that of the test group treated with R-3 | lower than that of the test group treated with R-3
10 |  |  | CSc1ccc(/C=C/C=C/C(=O)N2CCC(O)CC2)cc1 [R-8, (2E,4E)-1-(4-hydroxypiperidine-1-yl)-5-(4-(methylthio)phenyl)penta-2,4-dien-1-one] | less than that of the test groups treated with R-3 and 4 | lower than that of the test group treated with R-3 | lower than that of the test group treated with R-3
11 |  |  | COC1CCN(C(=O)/C=C/C=C/c2ccc(SC)cc2)CC1 [R-9, (2E,4E)-1-(4-methoxypiperidine-1-yl)-5-(4-(methylthio)phenyl)penta-2,4-dien-1-one] | less than that of the test groups treated with R-3 and 4 | lower than that of the test group treated with R-3 | lower than that of the test group treated with R-3
